Measurements: ChEMBL document CHEMBL1201862, “PubChem BioAssay data set” (2004)
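These data come from cells grown in 96-well plates and exposed to compound for 48 hours at five concentrations. Here, GI50 denotes the concentration required for 50% inhibition of growth.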 Active and inactive are the calls of the source. Rule as the data show it: active = GI50 up to about 1.1 µM and inactive = higher.

Assays:
Experiment in all cases: DTP human tumour cell line panel, 48 h
[1] = tested on: LOX IMVI
[2] = tested on: OVCAR-8
[3] = tested on: A498
[4] = tested on: M14
[5] = tested on: SF-295
[6] = tested on: HCT-116
[7] = tested on: NCI-H23
[8] = tested on: UACC-62
[9] = tested on: CCRF-CEM
[10] = tested on: HT-29
[11] = tested on: EKVX
[12] = tested on: TK-10
[13] = tested on: MOLT-4
[14] = tested on: 786-0
[15] = tested on: HCC 2998
[16] = tested on: IGROV-1
[17] = tested on: HOP-92
[18] = tested on: NCI-H522
[19] = tested on: KM12

Measured: GI50

C[n+]1cn(CC(=O)c2ccccc2)c(C(N)=O)c1N
inactive: [1] > 100 µM | [2] > 100 µM | [3] > 100 µM | [4] > 100 µM | [5] > 100 µM | [6] 24.2 µM | [7] > 100 µM | [8] > 100 µM | [9] > 100 µM | [10] > 100 µM | [11] > 100 µM | [12] > 100 µM | [13] > 100 µM | [14] 43.7 µM | [15] > 100 µM | [16] > 100 µM | [17] > 100 µM | [18] 77.6 µM | [19] > 100 µM

O/N=C1\C(=C\c2ccc3c(c2)OCCO3)CCCC1C(NO)c1ccc2c(c1)OCCO2 (centres undefined)
inactive: [1] 15.7 µM | [2] 31.4 µM | [3] 16 µM | [4] 17.7 µM | [5] 31 µM | [6] 18.7 µM | [8] 16.5 µM | [9] 16.6 µM | [10] 17.5 µM | [11] 25.2 µM | [12] 24.2 µM | [13] 10.1 µM | [14] 32.1 µM | [15] 22.6 µM | [16] 36.1 µM | [17] 23.3 µM | [18] 13.8 µM | [19] 21.4 µM

CCN(CC)c1ccc(/N=N/c2ccc(-c3nc4cccnc4o3)cc2)cc1
inactive: [1] > 100 µM | [2] > 100 µM | [3] > 100 µM | [4] > 100 µM | [5] > 100 µM | [6] > 100 µM | [7] > 100 µM | [8] > 100 µM | [9] > 100 µM | [10] > 100 µM | [11] > 100 µM | [12] > 100 µM | [13] > 100 µM | [14] > 100 µM | [15] 55.2 µM | [16] > 100 µM | [17] > 100 µM | [18] 66.4 µM | [19] > 100 µM

COC(=O)/C(=N/O)C(C(=O)C=C(C)C)C(=O)C(=O)Nc1nc2ccc([N+](=O)[O-])cc2s1 (centres undefined)
inactive: [1] 22.9 µM | [2] 39.5 µM | [3] 10.5 µM | [4] 54.7 µM | [5] 36.8 µM | [6] 41.7 µM | [7] 25.2 µM | [8] 32.6 µM | [9] 24.7 µM | [10] 59.7 µM | [11] 16.7 µM | [12] 27.3 µM | [13] 23.9 µM | [14] 37.3 µM | [15] 35.6 µM | [16] 36.9 µM | [17] 13.1 µM | [18] 32.1 µM | [19] 47.2 µM

COC12OCCN(C)C1=CC(=O)C1N=NCC12 (centres undefined)
inactive: [1] > 100 µM | [2] > 100 µM | [3] > 100 µM | [4] > 100 µM | [5] > 100 µM | [6] > 100 µM | [7] > 100 µM | [8] > 100 µM | [9] > 100 µM | [10] > 100 µM | [11] > 100 µM | [12] > 100 µM | [13] > 100 µM | [14] > 100 µM | [15] > 100 µM | [16] > 100 µM | [17] > 100 µM | [18] > 100 µM | [19] > 100 µM

CC1=Nc2c(O)nc(S)nc2NC(c2ccc(Cl)c(Cl)c2)C1 (centres undefined)
inactive: [1] 20 µM | [2] 18.7 µM | [3] 18.9 µM | [4] 16.9 µM | [5] 20.1 µM | [6] 15.8 µM | [7] 19.4 µM | [8] 29.8 µM | [9] > 100 µM | [10] 24.3 µM | [11] 28.9 µM | [12] > 55.5 µM | [13] > 100 µM | [14] 17.7 µM | [15] 17.8 µM | [16] 20.1 µM | [17] > 93.1 µM | [18] 74.3 µM | [19] 17.7 µM

O=C(C#Cc1ccccc1)N1c2ccccc2CC1c1c[nH]c2ccccc12 (centres undefined)
inactive: [1] 6.73 µM | [2] 11.6 µM | [3] 28.9 µM | [4] 15 µM | [5] 15.5 µM | [6] 13.4 µM | [7] 12.6 µM | [8] 7.82 µM | [9] 4.63 µM | [10] 18 µM | [11] 15.4 µM | [12] 21.4 µM | [13] 9.02 µM | [14] 16.2 µM | [15] 17.2 µM | [16] 3.73 µM | [17] 15.3 µM | [18] 11 µM | [19] 15.6 µM

CCC1(Br)C(=O)NC(=O)N(C2CC(O)C(CO)O2)C1N=[N+]=[N-] (centres undefined)
inactive: [1] > 100 µM | [2] > 100 µM | [3] > 100 µM | [4] > 100 µM | [5] > 100 µM | [7] 56.8 µM | [8] > 100 µM | [9] 44 µM | [10] > 100 µM | [11] > 100 µM | [12] > 100 µM | [13] > 100 µM | [14] > 100 µM | [15] > 100 µM | [16] > 100 µM | [17] > 100 µM | [18] 94.4 µM

O=Cc1[nH]c2ccccc2c1Br
inactive: [1] 26.7 µM | [2] 23.7 µM | [3] 16.8 µM | [4] 19.3 µM | [5] 38.4 µM | [6] 18.5 µM | [7] 30.3 µM | [8] 16.9 µM | [9] 37.4 µM | [10] 25.1 µM | [11] 35.9 µM | [12] 36.6 µM | [13] 22.5 µM | [14] 28 µM | [15] 60.5 µM | [16] 26.7 µM | [17] 26.8 µM | [18] 56.8 µM | [19] 26.3 µM

CC1=CC2C(C=C1)S(=O)(=O)N1CC21c1ccccc1 (centres undefined)
inactive: [1] 33.5 µM | [2] > 100 µM | [3] > 100 µM | [4] > 100 µM | [5] > 100 µM | [6] > 100 µM | [7] > 100 µM | [8] 64.6 µM | [9] > 100 µM | [10] > 100 µM | [12] > 100 µM | [14] > 100 µM | [15] > 100 µM | [16] > 100 µM | [17] 15.1 µM | [18] > 100 µM | [19] > 100 µM

C1CSC(=[N+]2CC[N+](=C3SCCS3)CC2)S1
inactive: [1] 39.2 µM | [2] > 100 µM | [3] > 100 µM | [4] > 100 µM | [5] > 100 µM | [6] > 100 µM | [7] > 100 µM | [8] > 100 µM | [9] 36.6 µM | [10] > 100 µM | [11] > 100 µM | [12] > 100 µM | [13] 44.9 µM | [14] > 100 µM | [15] > 100 µM | [16] > 100 µM | [17] 45.4 µM | [18] > 100 µM | [19] > 100 µM
